Data: US12365658B2, “Benzothia(di)azepine compounds and their use as bile acid modulators” (Albireo AB, priority 2021, dated 2025)

Legend:
Human LBAT = target: T1, Human LBAT (Homo sapiens, UniProt Q14973); test: LBAT (h/m) assay, human LBAT-overexpressing cells, 3H-taurocholic acid uptake; format: cell-based; details: 0.3 μM 3H-taurocholic acid and 7.5 μM cold taurocholic acid, 20 minutes, read-out: hLBAT IC50
T1 construct: expressed in transfected cells; kept under Geneticin selection
T1 sequence (Q14973 1-349): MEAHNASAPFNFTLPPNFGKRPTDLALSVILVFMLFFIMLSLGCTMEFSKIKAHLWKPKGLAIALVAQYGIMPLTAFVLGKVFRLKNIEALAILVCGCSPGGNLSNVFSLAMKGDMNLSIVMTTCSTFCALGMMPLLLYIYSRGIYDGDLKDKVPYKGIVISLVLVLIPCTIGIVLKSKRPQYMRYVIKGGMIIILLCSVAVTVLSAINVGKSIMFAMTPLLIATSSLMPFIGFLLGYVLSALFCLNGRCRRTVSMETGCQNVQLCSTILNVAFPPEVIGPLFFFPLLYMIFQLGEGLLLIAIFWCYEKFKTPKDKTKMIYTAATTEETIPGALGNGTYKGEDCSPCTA
Experimental: LBAT (h/m) Assay Protocol
20,000 cells (Human or Mouse LBAT-overexpressing cells) were seeded in 96-wells plate (Corning CLS3809) in 100 μL MEM-alpha medium (Gibco 12571-063) supplemented with 10% FBS (Gibco 10438026) containing Geneticin (Gibco 10131-027) (1 mg/mL) and incubated at 37° C. in 5% CO2 for 24 hours. After incubation, media was decanted from the wells and cells were washed two times with 300 μL of basal MEM-alpha medium (FBS-free). After decanting basal MEM-alpha medium each time, plates were tapped against paper towel to ensure maximum removal of residual media.
For human LBAT, incubation mix was prepared by adding test inhibitor dilutions (3-fold serial dilution in DMSO (Sigma D2650), 10 points) in MEM-alpha (without FBS) containing 0.3 μM 3H-taurocholic acid (ARC ART-1368) and 7.5 μM cold taurocholic acid (Sigma T4009) (maintaining 0.2% final DMSO concentration). For mouse LBAT, incubation mix was prepared by adding test inhibitor dilutions (3-fold serial dilution in DMSO, 10 points) in MEM-alpha (without FBS) containing 0.3 μM 3H-taurocholic acid and 25 μM cold taurocholic acid maintaining 0.2% final DMSO concentration).
50 μL of incubation mix containing test inhibitors was then added to the wells (in duplicate) and the plates were incubated for 20 minutes in a CO2 incubator at 37° C. After incubation, the reaction was stopped by keeping the plates on ice water mix for 2-3 minutes and then the incubation mix was aspirated completely from the wells. The wells were washed two times with 250 μL of chilled unlabelled 1 mM taurocholic acid dissolved in HEPES (Gibco 15630080)-buffered (10 mM) HBSS (Gibco 14175079) (pH 7.4). The plates were tapped against a paper towel after every wash to ensure maximum removal of blocking buffer.
100 μL of MicroScint-20 (PerkinElmer 6013621) was added to the wells and kept overnight at room temperature before reading the plates in TopCount NXT™ Microplate Scintillation and Luminescence Counter from PerkinElmer under 3H Test protocol (set at 120 seconds reading time per well, with normal plate orientation).
Preparation of Test Compound Dilutions
All test compounds were provided in powder form at room temperature. 10 mM DMSO stocks of the test compounds were prepared, aliquoted and stored at −20° C. From the 10 mM DMSO stock of the compounds, a 3-fold serial dilution in DMSO was prepared to get a total of 10 dilutions of the test compounds. 0.5 μL of this dilution in DMSO was added to 250 μL of FBS-free basal media containing 3H-taurocholic acid and cold taurocholic acid to prepare the incubation mixture.

Caco-2 cells = test: Bidirectional permeability assay (Caco-2 cells); format: in vitro ADME; details: 10 μM in FaSSIF buffer, 120 minutes
Experimental: Bidirectional Permeability Assay (Caco-2 Cells)
Caco-2 cells (Evotec) were seeded at a density of 70,000 cells/well in Millicell® 24-well cell culture insert plates and maintained in an incubator (37° C., 5% CO2, 95% RH) for 21 days with media change on alternate days.
Stock solutions (10 mM) of the test compounds, atenolol (low permeability marker), propranolol (high permeability marker) and digoxin (substrate for P-gp transport pathway) were prepared in dimethylsulfoxide (DMSO). An intermediate stock solution (1 mM) was prepared by diluting 10 μL of 10 mM master stock solution with 90 μL of neat DMSO. A working stock solution (10 μM) was prepared by diluting 50 μL of 1 mM with 4950 μL of FaSSIF buffer. Post addition of compounds to the FaSSIF, samples were subjected to sonication for 2 hours, and centrifuged at 4000 RPM for 30 minutes at 37° C. The 4 mL of resultant supernatant was directly used in the assay. The final DMSO concentration in the transport experiments was 1%.
On the day of assay, Caco-2 monolayers were washed twice with transport buffer (HBSS, pH 7.4) and pre-incubated for 30 min (37° C., 5% CO2, 95% RH) in an incubator. The electrical resistance of the monolayers was measured with a Millicell®-ERS system. Monolayers with trans-epithelial electrical resistance (TEER) values greater than 350 ohm·cm^2 were selected for the assay.
The assay was conducted in absorptive direction (A2B) and secretory (B2A) directions. Transport experiments were initiated by addition of transport assay buffer (FaSSIF buffer prepared in HBSS) consisting of compounds to the donor compartment (apical chamber A-B; basolateral chamber B-A) in duplicate (n=2) wells. Drug free HBSS buffer (pH 7.4) containing 1% bovine serum albumin (BSA) was introduced to the receiver (A-B-basolateral; B-A-Apical) compartments. The volumes of apical and basolateral compartments were 0.4 and 0.8 mL, respectively. After adding dosing solution, plates were incubated in an incubator for 120 minutes at 37° C. After 120 minutes, donor and receiver samples were collected and matrix matched (1:1, 30 μL study sample+30 μL blank buffer) with the opposite buffer. Dosing samples matrix matched (1:1, 30 μL study sample+30 μL blank buffer) with the opposite buffer. Samples were processed by adding acetonitrile containing internal standard (60 μL study sample+200 μL acetonitrile containing internal standard-Tolbutamide, 500 ng/mL). Samples were vortexed and centrifuged at 4000 rpm for 10 minutes. The obtained supernatant (100 μL) was diluted with 100 μL of water and transferred to fresh 96 well plates. The concentration of compounds in the samples was analyzed by liquid chromatography tandem mass spectrometry (LC-MS/MS) method using discovery grade bio-analytical method, as applicable.
The mean apparent permeability (Papp, ×10^−6 cm/sec) of the test compounds, atenolol, propranolol and digoxin were calculated as follows:
where dq/dt=rate of transport (rate of transport of compound in the receiver compartment), C0=initial concentration in the donor compartment, A=surface area of the effective filter membrane.

Bioavailability studies = format: in vivo, Male mice (C57BL/6 or CD1) or Wistar rats; details: male, plasma; single intravenous dose 1 mg/kg and single oral dose 10 mg/kg; species per compound not given
Experimental: Male mice (C57BL/6 or CD1) or Wistar rats of 8-9 weeks old were used. For each test compound, two groups of 3 animals each were used. One group was administered a single intravenous dose of 1 mg/kg (vehicle 100% DMSO) through the tail vein and the other group was administered a single oral dose of 10 mg/kg through gavage needle. The group that was administered an oral dose was fasted overnight. Blood samples were collected after 0.083, 0.25, 0.5, 1, 2, 4, 6, 8 and 24 hours following intravenous administration, and after 0.25, 0.5, 1, 2, 4, 6, 8 and 24 hours following oral administration. Blood samples were taken from saphenous vein. 0.2% EDTA was used as the anticoagulant. The samples were analyzed by a discovery grade bioanalytical method developed for the estimation of test compound in plasma, using an LC-MS/MS system.

IC50 (Human LBAT): 3 nM
Permeability (Caco-2) Papp A2B (Caco-2 cells; absorptive direction (A2B)): 12.2 ×10⁻⁶ cm/s
Permeability (Caco-2) Papp B2A (Caco-2 cells; secretory direction (B2A)): 7.3 ×10⁻⁶ cm/s
bioavailability (Bioavailability studies): 100%
SMILES: CCCCC1CN(c2ccc(F)cc2)c2cc(SC)c(OCC(C)(C)C(=O)O)cc2S(=O)(=O)N1C (single isomer, unassigned) [14, enantiomer 2]
